Series [1] can be described thus: Effect of D-peptides on plasma stability of KAI-9706. Here is the method: KAI-9706 was engineered with D-amino acids to determine their impact on peptide composition stability. Unmodified KAI-9706 was compared to a peptide composition with the same amino acid sequence, however the amino acids used were d-enantiomers instead of 1-amino acids. A retro-inverso version and a scrambled version of the peptide composition were also prepared.

Series [2] concerns patients with acute anterior STEMI. In words: DELTA MI trial: intracoronary KAI-9803 during primary PCI for acute anterior STEMI. The procedure: Safety and biomarker end points were assessed.
The following example is a clinical treatment of acute ST-elevation myocardial infarction (STEMI) using the compositions and methods provided in the invention.
Patients were recommended to receive aspirin (162-325 mg orally), a thienopyridine loading dose (clopidogrel 300-600 mg or ticlopidine 500 mg), unfractionated heparin, and glycoprotein IIb-IIIa inhibitors during PCI. […] After verifying the final angiographic inclusion criteria during diagnostic angiography, randomization and study drug preparation occurred in the catheterization laboratory before the beginning of the PCI procedure.
Study drug was reconstituted into a clear solution at 1 of 4 concentrations using serial dilutions with 0.9% sodium chloride solution. Study drug was administered during PCI in the following sequence. First, the guidewire was passed across the obstruction in the left anterior descending (LAD) infarct vessel and an over-the-wire balloon catheter was positioned at the level of the obstruction. Second, the guidewire was removed, and dilute contrast was injected to confirm positioning of the catheter tip downstream from the obstruction and to assess patency of the distal vessel. The contrast injection was followed by a saline flush, and the guidewire was reinserted. Third, the balloon was inflated, and, after removing the guidewire, 2 mL of blinded study drug were hand injected slowly into the distal vascular bed over at least 1 minute. Fourth, the guidewire was readvanced through the catheter into the distal vessel, and the balloon was deflated. Finally, after antegrade epicardial coronary flow was re-established following initial balloon inflations, 3 mL of blinded study drug were injected through the guide catheter positioned at the ostium of the left main coronary artery. The PCI procedure was then completed according to standard technique.
After initial informed consent was obtained and before diagnostic angiography was performed, a continuous digital 12-lead ECG monitor (NEMON 180+, Northeast Monitoring, Natick, Mass.) was applied and baseline serum samples were obtained for analyses of cardiac markers including creatine kinase (CK and CK-MB), troponin T, and N-terminal pro-brain natriuretic peptide (BNP).
After completion of the PCI procedure, angiography was performed a minimum of 10 minutes after the final balloon inflation and a minimum of 30 minutes after antegrade epicardial flow was re-established to measure TIMI (Thrombolysis in Myocardial Infarction) flow grade, corrected TIMI frame count, and TIMI myocardial perfusion grade (TMPG). TMPG was assessed approximately 30 minutes after administration of study drug and prior to intracoronary administration of adenosine. Coronary flow reserve was determined by measuring corrected TIMI frame count before and after administration of 18-24 mcg of intracoronary adenosine. A left ventriculogram was performed to assess ejection fraction.
The continuous ECG monitor was removed after 24 hours of data collection. Continuous ST-segment recovery analysis was performed in a blinded core laboratory. End points assessed from measurement of continuous 12-lead ECGs included time to stable ST recovery, % ST-segment resolution at serial static time points, and ST recovery time-trend curve area defined by summated ST-segment resolution and re-elevation integrated over the first 3 hours following PCI.
Blood collection for CK-MB levels was performed at 3-6 hours, 6-12 hours, 18-24 hours, and 36 hours after randomization.

With `CC[C@@H](C)[C@@H](NC(=O)[C@H]1CCCN1C(=O)[C@@H](C)NC(=O)[C@@H](CC(=O)O)NC(=O)[C@@H](Cc1c[nH]cn1)NC(=O)[C@H](N)CSSC[C@@H](N)C(=O)N[C@H](Cc1ccc(O)cc1)C(=O)NCC(=O)N[C@H](CCCNC(=N)N)C(=O)N[C@H](CCCCN)C(=O)N[C@H](CCCCN)C(=O)N[C@H](CCCNC(=N)N)C(=O)N[C@H](CCCNC(=N)N)C(=O)N[C@H](CCC(N)=O)C(=O)N[C@H](CCCNC(=N)N)C(=O)N[C@H](CCCNC(=N)N)C(=O)N[C@H](CCCNC(=N)N)C(=O)O)C(=O)NCC(=O)N[C@H](Cc1ccc(O)cc1)C(=O)N[C@H](CC(=O)O)C(=O)O` [KAI-9706 carrier All-D cargo All-D], in series [1], the remaining at 0.25 h is 100%.
On the same count and under the same terms, then `CC[C@H](C)[C@H](NC(=O)[C@@H]1CCCN1C(=O)[C@H](C)NC(=O)[C@H](CC(=O)O)NC(=O)[C@H](Cc1c[nH]cn1)NC(=O)[C@@H](N)CSSC[C@@H](N)C(=O)N[C@H](Cc1ccc(O)cc1)C(=O)NCC(=O)N[C@H](CCCNC(=N)N)C(=O)N[C@H](CCCCN)C(=O)N[C@H](CCCCN)C(=O)N[C@H](CCCNC(=N)N)C(=O)N[C@H](CCCNC(=N)N)C(=O)N[C@H](CCC(N)=O)C(=O)N[C@H](CCCNC(=N)N)C(=O)N[C@H](CCCNC(=N)N)C(=O)N[C@H](CCCNC(=N)N)C(=O)O)C(=O)NCC(=O)N[C@@H](Cc1ccc(O)cc1)C(=O)N[C@@H](CC(=O)O)C(=O)O` [KAI-9706 carrier All-D cargo All-L], with 88%; and `CC[C@@H](C)[C@@H](NC(=O)[C@H]1CCCN1C(=O)[C@@H](C)NC(=O)[C@@H](CC(=O)O)NC(=O)[C@@H](Cc1c[nH]cn1)NC(=O)[C@H](N)CSSC[C@H](N)C(=O)N[C@@H](Cc1ccc(O)cc1)C(=O)NCC(=O)N[C@@H](CCCNC(=N)N)C(=O)N[C@@H](CCCCN)C(=O)N[C@@H](CCCCN)C(=O)N[C@@H](CCCNC(=N)N)C(=O)N[C@@H](CCCNC(=N)N)C(=O)N[C@@H](CCC(N)=O)C(=O)N[C@@H](CCCNC(=N)N)C(=O)N[C@@H](CCCNC(=N)N)C(=O)N[C@@H](CCCNC(=N)N)C(=O)O)C(=O)NCC(=O)N[C@H](Cc1ccc(O)cc1)C(=O)N[C@H](CC(=O)O)C(=O)O` [KAI-9706 carrier All-L cargo All-D], with 0%.
`CC(C)C[C@H](NC(=O)[C@H](CO)NC(=O)CNC(=O)[C@H](CC(C)C)NC(=O)[C@H](CCC(=O)O)NC(=O)[C@H](Cc1ccc(O)cc1)NC(=O)[C@H](CO)NC(=O)[C@H](CC(N)=O)NC(=O)[C@H](Cc1ccccc1)NC(=O)[C@H](CO)NC(=O)[C@@H](N)CSSC[C@H](N)C(=O)N[C@@H](Cc1ccc(O)cc1)C(=O)NCC(=O)N[C@@H](CCCNC(=N)N)C(=O)N[C@@H](CCCCN)C(=O)N[C@@H](CCCCN)C(=O)N[C@@H](CCCNC(=N)N)C(=O)N[C@@H](CCCNC(=N)N)C(=O)N[C@@H](CCC(N)=O)C(=O)N[C@@H](CCCNC(=N)N)C(=O)N[C@@H](CCCNC(=N)N)C(=O)N[C@@H](CCCNC(=N)N)C(=O)O)C(=O)O` [KAI-9803]: the “investigator-reported CHF events” value in series [2] (active study drug group, through 6 months, number of events) came out at 21. Further, the “incidence of serious adverse events versus placebo” value in series [2] (all cohorts) is recorded as “similar”. Besides, the “changes in clinical laboratory values from baseline through 48 hours versus placebo” value in series [2] (blood counts, electrolytes, BUN, creatinine, liver function tests) is on record as “no differences”. Moreover, the “incidence of serious adverse events through 30 days” value was determined as 30.4% in series [2] (cohort 1 (0.05 mg)), 16.0% in series [2] (cohort 2 (0.5 mg)), 19.2% in series [2] (cohort 3 (1.25 mg)) and 35.7% in series [2] (cohort 4 (5.0 mg)). Also, the “median maximum change in the QT interval from baseline until after the second dose” value in series [2] (pooled active study drug) amounted to 16.9 ms.

The values are drawn from patent US20090318351A1, “METHOD OF TREATING ACUTE ST-ELEVATION MYOCARDIAL INFARCTION WITH A DELTA PKC ANTAGONIST” (priority 2008, published 2009).
